According to article PMC7211198, “Phase 1b study of a small molecule antagonist of human chemokine (C-C motif) receptor 2 (PF-04136309) in combination with nab-paclitaxel/gemcitabine in first-line treatment of metastatic pancreatic ductal adenocarcinoma” (Investigational New Drugs, 2019):

Assay: Safety and tolerability (TEAEs, SAEs, DLTs, RP2D) in phase Ib study
Type: in vivo, human
Description: Safety assessments included collection of adverse events (AEs), serious AEs (SAEs), vital signs and physical examination, electrocardiogram (12-lead), laboratory assessments, including pregnancy test, and verification of concomitant treatments. A patient was considered as DLT-evaluable if the patient experienced a DLT or if otherwise, in the absence of a DLT, the patient received at least 85% of the planned doses of each study drug in the first 28-day cycle. DLTs were defined as any of the following events occurring in the first cycle of treatment (days 1 through 28) and attributed (i.e., judged to be at least possibly related) to the combination of PF-04136309 plus nab-paclitaxel/gemcitabine, where relationship with the combination could not be ruled out. DLTs were hematologic events of grade 4 neutropenia lasting >5 days; febrile neutropenia; grade ≥ 3 neutropenic infection; grade ≥ 3 thrombocytopenia with grade ≥ 2 bleeding; grade 4 thrombocytopenia; and nonhematologic events of grade 3 toxicities. Exceptions included nausea and vomiting responding to prophylaxis and/or treatment and lasting <7 days from each chemotherapy infusion period; diarrhea responding to treatment and lasting <7 days; grade 3 fatigue lasting <7 days; grade 3 QT interval corrected for heart rate prolongation (>500 msec) persisting after correction of any reversible causes; and/or grade 3 aspartate aminotransferase (AST) and/or alanine aminotransferase (ALT) increase lasting ≤7 days. All grade 4 toxicities and a delay of >2 weeks in receiving the next scheduled cycle due to persistent treatment-related toxicities were considered DLTs. AEs meeting DLT criteria in the dose-expansion phase included grade 3 events of diarrhea, hypokalemia, and dysesthesia and grade 4 hypoxia. […] AEs were graded according to the National Cancer Institute Common Terminology Criteria for Adverse Events, version 4.03.

[1] = 500 mg BID + nab-P/Gem, treatment-related SAE
[2] = 750 mg BID + nab-P/Gem, n = 4, treatment-related TEAE
[3] = 750 mg BID + nab-P/Gem, all-causality SAE
[4] = 750 mg BID + nab-P/Gem, all-causality TEAE

Compound: O=C(NCC(=O)N1CC[C@H](N[C@H]2CC[C@@](O)(c3ccc(-c4ncccn4)cn3)CC2)C1)c1cccc(C(F)(F)F)c1 [PF-04136309]
- Any SAE, Grade 3 [1]: 3 (17.6) n (%)
- Any SAE, Grade 4 [1]: 1 (5.9) n (%)
- Any SAE, Grade 5 [1]: 1 (5.9) n (%)
- Any SAE, Total [1]: 5 (29.4) n (%)
- Hypoxia, Grade 1 [1]: 0 n (%)
- Hypoxia, Grade 2 [1]: 0 n (%)
- Hypoxia, Grade 3 [1]: 0 n (%)
- Hypoxia, Grade 4 [1]: 1 (5.9) n (%)
- Hypoxia, Grade 5 [1]: 0 n (%)
- Hypoxia, Total [1]: 1 (5.9) n (%)
- Pneumonia, Grade 1 [1]: 0 n (%)
- Pneumonia, Grade 2 [1]: 0 n (%)
- Pneumonia, Grade 3 [1]: 0 n (%)
- Pneumonia, Grade 4 [1]: 0 n (%)
- Pneumonia, Grade 5 [1]: 1 (5.9) n (%)
- Pneumonia, Total [1]: 1 (5.9) n (%)
- Pneumonitis, Grade 1 [1]: 0 n (%)
- Pneumonitis, Grade 2 [1]: 0 n (%)
- Pneumonitis, Grade 3 [1]: 3 (17.6) n (%)
- Pneumonitis, Grade 4 [1]: 0 n (%)
- Pneumonitis, Grade 5 [1]: 0 n (%)
- Pneumonitis, Total [1]: 3 (17.6) n (%)
- Pyrexia, Grade 1 [1]: 0 n (%)
- Pyrexia, Grade 2 [1]: 1 (5.9) n (%)
- Pyrexia, Grade 3 [1]: 0 n (%)
- Pyrexia, Grade 4 [1]: 0 n (%)
- Pyrexia, Grade 5 [1]: 0 n (%)
- Pyrexia, Total [1]: 1 (5.9) n (%)
- DLT events (500 mg BID starting dose, three of 17 patients, four DLTs): grade 3 dysesthesia, diarrhea, and hypokalemia and one event of grade 4 hypoxia
- DLT (750 mg BID + nab-P/Gem, n = 4, first cycle (days 1 through 28)): 1 (25) n (%)
- ALT increase, grade ≥3 [2]: 1 (25.0) n (%)
- AST increase, grade ≥3 [2]: 1 (25.0) n (%)
- Anemia, grade ≥3 [2]: 0 n (%)
- Fatigue, grade ≥3 [2]: 0 n (%)
- Leukopenia, grade ≥3 [2]: 3 (75.0) n (%)
- Lymphopenia, grade ≥3 [2]: 1 (25.0) n (%)
- Neutropenia, grade ≥3 [2]: 3 (75.0) n (%)
- Pneumonitis, grade ≥3 [2]: 0 n (%)
- Any SAE, Grade 1 [3]: 0 n (%)
- Any SAE, Grade 2 [3]: 1 (25.0) n (%)
- Any SAE, Grade 3 [3]: 2 (50.0) n (%)
- Any SAE, Grade 4 [3]: 0 n (%)
- Any SAE, Grade 5 [3]: 0 n (%)
- Any SAE, Total [3]: 3 (75.0) n (%)
- Appetite decrease, Grade 1 [3]: 0 n (%)
- Appetite decrease, Grade 2 [3]: 0 n (%)
- Appetite decrease, Grade 3 [3]: 1 (25.0) n (%)
- Appetite decrease, Grade 4 [3]: 0 n (%)
- Appetite decrease, Grade 5 [3]: 0 n (%)
- Appetite decrease, Total [3]: 1 (25.0) n (%)
- Cellulitis, Grade 1 [3]: 0 n (%)
- Cellulitis, Grade 2 [3]: 0 n (%)
- Cellulitis, Grade 3 [3]: 1 (25.0) n (%)
- Cellulitis, Grade 4 [3]: 0 n (%)
- Cellulitis, Grade 5 [3]: 0 n (%)
- Cellulitis, Total [3]: 1 (25.0) n (%)
- Cognitive disorder, Grade 1 [3]: 0 n (%)
- Cognitive disorder, Grade 2 [3]: 0 n (%)
- Cognitive disorder, Grade 3 [3]: 1 (25.0) n (%)
- Cognitive disorder, Grade 5 [3]: 0 n (%)
- Cognitive disorder, Total [3]: 1 (25.0) n (%)
- Gastroesophageal reflux disease, Grade 1 [3]: 0 n (%)
- Gastroesophageal reflux disease, Grade 2 [3]: 0 n (%)
- Gastroesophageal reflux disease, Grade 3 [3]: 1 (25.0) n (%)
- Gastroesophageal reflux disease, Grade 4 [3]: 0 n (%)
- Gastroesophageal reflux disease, Grade 5 [3]: 0 n (%)
- Gastroesophageal reflux disease, Total [3]: 1 (25.0) n (%)
- Rash, Grade 1 [3]: 0 n (%)
- Rash, Grade 2 [3]: 1 (25.0) n (%)
- Rash, Grade 3 [3]: 0 n (%)
- Rash, Grade 4 [3]: 0 n (%)
- Rash, Grade 5 [3]: 0 n (%)
- Rash, Total [3]: 1 (25.0) n (%)
- ALT increase, Grade 1 [4]: 0 n (%)
- ALT increase, Grade 2 [4]: 2 (50.0) n (%)
- ALT increase, Grade 3 [4]: 1 (25.0) n (%)
- ALT increase, Grade 4 [4]: 0 n (%)
- ALT increase, Grade 5 [4]: 0 n (%)
- ALT increase, Total [4]: 3 (75.0) n (%)
- Alopecia, Grade 1 [4]: 2 (50.0) n (%)
- Alopecia, Grade 2 [4]: 1 (25.0) n (%)
- Alopecia, Grade 3 [4]: 0 n (%)
- Alopecia, Grade 4 [4]: 0 n (%)
- Alopecia, Grade 5 [4]: 0 n (%)
- Alopecia, Total [4]: 3 (75.0) n (%)
- Anemia, Grade 1 [4]: 0 n (%)
- Anemia, Grade 2 [4]: 2 (50.0) n (%)
- Anemia, Grade 3 [4]: 0 n (%)
- Anemia, Grade 4 [4]: 0 n (%)
- Anemia, Grade 5 [4]: 0 n (%)
- Anemia, Total [4]: 2 (50.0) n (%)
- Any AE, Grade 1 [4]: 0 n (%)
- Any AE, Grade 2 [4]: 0 n (%)
- Any AE, Grade 3 [4]: 4 (100.0) n (%)
- Any AE, Grade 4 [4]: 0 n (%)
- Any AE, Grade 5 [4]: 0 n (%)
- Any AE, Total [4]: 4 (100.0) n (%)
- Appetite decrease, Grade 1 [4]: 1 (25.0) n (%)
- Appetite decrease, Grade 2 [4]: 0 n (%)
- Appetite decrease, Grade 3 [4]: 1 (25.0) n (%)
- Appetite decrease, Grade 4 [4]: 0 n (%)
- Appetite decrease, Grade 5 [4]: 0 n (%)
- Appetite decrease, Total [4]: 2 (50.0) n (%)
- Cellulitis, Grade 1 [4]: 0 n (%)
- Cellulitis, Grade 2 [4]: 1 (25.0) n (%)
- Cellulitis, Grade 3 [4]: 1 (25.0) n (%)
- Cellulitis, Grade 4 [4]: 0 n (%)
- Cellulitis, Grade 5 [4]: 0 n (%)
- Cellulitis, Total [4]: 2 (50.0) n (%)
- Chills, Grade 1 [4]: 2 (50.0) n (%)
- Chills, Grade 2 [4]: 0 n (%)
- Chills, Grade 3 [4]: 0 n (%)
- Chills, Grade 4 [4]: 0 n (%)
